Data on four molecules can be found in patent US5016655A, “Cigarette manufacturing process” (priority 1989, dated 1991).

In data set [1] the test system is tumor formation. The conditions noted are these: cited from earlier work.
In data set [2] the test system is F-344 rat esophagus. The conditions noted are these: F-344 rat esophagus vs other tissues; cited from earlier work.
The test system of data set [3] is mice. The conditions noted are these: cited from earlier work.
The conditions of data set [4]: Table V; cited from earlier work.
A short description of data set [5]: calculated air concentrations of cyclohexanol from cigarette smoke. The conditions noted are these: nine puffs at 35 ml, 315 ml. On the procedure: Therefore, 0.050 would be in 315 ml, which would be expected from nine puffs at 35 ml per puff. […] However, this exposure in contrast to the eight-hour work day assumption of the TLV is only during the actual puffing time for the smoker.

The subject of data set [6] is radioactivity ([14C]NNN) in bronchial epithelium. The data set is described as follows: cyclohexanol vapor inhalation, [14C]NNN autoradiography (Examples 2 and 3). Type of data set: in vivo, C57BL/6J mouse. The conditions noted are these: vapor 5 min. On the procedure:
The mouse was kept in the closed beaker for about five minutes as the bottom of the beaker was maintained at 50° C. in a water bath. […] Handbook of Chemistry and Physics (1979), at D-203 to D-217.
One hour later, the mouse was anesthetized lightly by ether and frozen by immersion in dry ice/hexane. […] Control experiments were conducted for comparison purposes and radioactivity was detected in the respiratory epithelium in the controls.
Example 2 was duplicated, except that the mouse was kept in the closed beaker for five minutes as the bottom of the beaker was maintained at 26° C. in a water bath. […] After injection as in Example 2, the mouse was processed in the same manner as in Example 2.

Data set [7] concerns human. The conditions noted are these: cited from earlier work.
The test system of data set [8] is smoker exposure versus effect level in animals. The data set is described as follows: daily body burden and exposure versus effect level.
Data set [9] deals with localization of nitrosamines (NNN, NNK) in tissues. The data set is described as follows: nitrosamine delocalization / blocking, general statements. The conditions noted are these: in vivo.
Data set [10] can be described thus: transfer of cyclohexanol to cigarette smoke, gas chromatography (Example 7). On the procedure:
This work was performed to determine the amount of cyclohexanol transferred to smoke from cigarettes loaded with the chemical. Duplicate runs were carried out. In each run, smoke from twenty cigarettes, twelve puffs/cigarette, was collected. Cyclohexanol was analyzed in both the particulate (filter extract) and non-particulate phases of cigarette smoke by gas chromatography. A standard curve was made and analyzed simultaneously with the samples.
The total volume of smoke from 20 cigarettes=12×33.3×20=7992 ml [formula]
These calculations are based on the following information:
Using conventional manufacturing practices, 1,000 pounds of dressed rag tobacco yields 510,000 finished cigarettes. These ratios and yields are to be strictly monitored. The ratio of top dressing to rag tobacco is based on the published TLV's for the active ingredient of this dressing--cyclohexanol.

Data set [11] is described as follows: transfer of cyclohexanol into smoke, standard smoking machine (Example 6). The method, then: Cyclohexanol appears to meet these criteria.
Cigarettes were hand-laced with cyclohexanol, that is by evenly injecting the alcohol into the rod of a manufactured cigarette using a machine-controlled syringe. […] Sixty cigarettes were smoked on a standard smoking machine using Cambridge filter pads to collect the particulate phase, where most of the material is carried. A transfer efficiency of ten percent was established with this test cigarette. […]. The load was 620 micrograms per cigarette, and the transfer efficiency was ten percent. […].

Data set [12] has as its system rabbits. The conditions noted are these: TLV documentation (1943); cited from earlier work.
In data set [13] the test system is localization of radioactivity ([14C]NNN) in bronchial epithelium. The data set is described as follows: effect of substances on localization of radioactivity one hour after intravenous [14C]NNN (Table VI). Type of data set: in vivo, mice. The conditions noted are these: one hour after intravenous [14C]NNN; solids at ambient temperature. From the text:
Table VI below lists the compounds tested for their effect on the localization of radioactivity in bronchial epithelium one hour after intravenous administration of [^14 C]NNN. Unless indicated otherwise, the compounds were parenterally administered acutely at various times prior to [^14 C]NNN. In many cases only one mouse was studied for each compound. […].
Effect of substances on the localization of radioactivity in bronchial epithelium of mice one hour after intravenously receiving [^14 C] nitrosonornicotine.
For all the remaining compounds the general protocol was to administer the potential blocker some minutes prior to administration of the [^14 C]NNN. Potential blockers were given orally, intraperitoneally or by inhalation, and the [^14 C]NNN was given intravenously.

Data set [14] deals with nitrosamine ([14C]NNN) localization. The data set is described as follows: imidazole intraperitoneal, [14C]NNN autoradiography (Examples 4 and 5). Type of data set: in vivo, male C57BL/6J mouse. The conditions noted are these: ip. The method, then:
An adult male C57BL/6J mouse was injected intraperitoneally with 0.02 ml/g body weight of a solution of imidazole in water. The imidazole solution concentration was such that 0.05 g of imidazole was delivered per kg of body weight. […] See Example 1.
Example 4 was duplicated except that the adult mouse was injected intraperitoneally with 0.02 ml/g body weight of a solution of imidazole in water, wherein the solution concentration was such that 0.25 g of imidazole was delivered per kg of body weight.

The structures appear in SMILES notation. Read-outs that look alike come from different tables or passages of the source.

Take `O=NN1CCCC1c1cccnc1` (centres unmarked) [NNN, N'-Nitrosonoronicotine]: the “number of sites of tumor formation” value in data set [1] (nasal cavity, salivary duct, esophagus, bronchial epithelium, liver) is “five”. Further, the “hydroxylation at the a-carbon of NNN adjacent to the pyridine ring” value in data set [2] was “preferentially catalyzes hydroxylation”.

As for `CN(CCCC(=O)c1cccnc1)N=O` [NNK], in data set [1] (rat, in vivo), the “carcinogenicity / tumor induction” value is on record as “powerful environmental carcinogens”.

Consider `OC1CCCCC1` [Cyclohexanol], for which, in data set [3], the “acute intravenous toxic dose” value is on record as 270 mg/kg. For the same molecule, the “Boiling Point” value in [4] is 161 °C. Also, the “instantaneous concentration to a smoker as % of TLV” value in data set [5] is reported as “about 75 % of the TLV value”. For the same molecule, the “radioactivity in bronchial epithelium” value in data set [6] (26° C., 0.001% in air) is listed as “No radioactivity was detected”; in data set [6] (50° C., 0.01% in air), “No radioactivity was detected”. The TLV in data set [7] (Example 7 summary) was 200; in data set [7] (Table of smokestream concentrations) it was 200.0 µg/L; in [7] (Table of smokestream concentrations, listed as cyclohexanol), 200 µg/L. The “OSHA safe air level” value in data set [7] (eight continuous hours) is on record as “two hundred”. Moreover, in data set [7] (eight hour work day and forty hour work week), the “Toxicity: OSHA time weighted average limit” value is 200 mg/m^3. Moreover, the “body burden from a pack of cigarettes” value in data set [8] (all cyclohexanol in smoke absorbed, 20 cigarettes) was determined as 1.0 mg. In addition, in data set [8] (one pack a day smoker), the daily burden turned out to be 0.014 mg/kg. The “mouse iv toxic dose versus human exposure” value in data set [8] (one pack a day smoker) is reported as 20,000 times. For the same molecule, in data set [8] (rats, pharmacological changes (enzyme or neurotoxicity)), the “difference in exposure versus effect level in animals” value is reported as ~20,000 fold. The “effectiveness against NNN or NNK” value in data set [9] is “effective against NNN”. In addition, the “efficacy in the laboratory” value in data set [9] is “highly effective in the laboratory”. Moreover, in data set [10] (Example 7 summary), the “% of TLV” value is listed as 59.5%. In [10] (Fully Smoked Cigarette), the “Percent of TLV” value is reported as 59.5%. Also, the “Percent TLV” value in data set [10] (Instant ("Puff") Exposure) turned out to be 4.9%. Besides, the “smoked concentration as % of TLV” value in data set [11] (620 micrograms per cigarette) was 99 % of cyclohexanol TLV; in [11] (8750 micrograms loaded per cigarette) it was 1389 % of TLV. The “slight degenerative changes, air level” value in data set [12] is given as “about 600 mg per cubic meter”.

`c1c[nH]cn1` [imidazole]: in [13], the “decrease in the localization of radioactivity in bronchial epithelium” value was “significant decrease”. Also, the figures for the nitrosamine delocalization entry in data set [14] (0.05 g/kg) and in data set [14] (0.25 g/kg) were “Significant nitrosamine delocalization” and “significant delocalization of nitrosamine”, respectively. For the same molecule, in [9], the “nitrosamine delocalization / inhibition of nitrosamine localization” value was “found to delocalize nitrosamines”.
